Earlier results as cited in publication PMC6854850 (MicrobiologyOpen, 2019).

Target: T1, OmpP (Escherichia coli, UniProt P34210)
T1 sequence (P34210 24-315): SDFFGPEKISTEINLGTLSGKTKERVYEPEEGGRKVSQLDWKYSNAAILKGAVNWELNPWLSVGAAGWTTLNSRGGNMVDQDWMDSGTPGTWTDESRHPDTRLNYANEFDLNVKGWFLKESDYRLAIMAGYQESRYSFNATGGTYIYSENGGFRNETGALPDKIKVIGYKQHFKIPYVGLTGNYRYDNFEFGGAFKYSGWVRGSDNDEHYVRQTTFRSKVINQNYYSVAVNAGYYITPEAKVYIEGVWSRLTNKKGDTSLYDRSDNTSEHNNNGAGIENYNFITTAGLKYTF
Details: ref Hwang et al., 2007

Q: Which “cleavage of AMP by OmpP, in words” value does the source give for protamine here?
A: Its value is “has been shown to cleave”.
